In patent publication US8906852B2 (MethylGene Inc., priority 2010, dated 2014):

Molecular target: T1, VEGFR/KDR (Homo sapiens, UniProt P35968)
T1 construct: made in house; host or cells: Sf9 cells (Spodoptera frugiperda), baculovirus
Assay: VEGFR/KDR kinase inhibition, DELFIA assay
Assay type: biochemical
Conditions: ATP 0.6 uM (2x Km), enzyme 5 nM
Method in brief: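 Enzyme (5 nM) pre-incubated 4 min on ice with inhibitor and Mg-ATP (0.6 uM, 2× Km), then reacted 10-30 min at 30° C on immobilized poly(Glu4,Tyr). EDTA-quenched phosphotyrosine detected with Europium-labeled antibody by time-resolved fluorescence; IC50 from concentration series.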

T1 sequence (P35968 806-1356): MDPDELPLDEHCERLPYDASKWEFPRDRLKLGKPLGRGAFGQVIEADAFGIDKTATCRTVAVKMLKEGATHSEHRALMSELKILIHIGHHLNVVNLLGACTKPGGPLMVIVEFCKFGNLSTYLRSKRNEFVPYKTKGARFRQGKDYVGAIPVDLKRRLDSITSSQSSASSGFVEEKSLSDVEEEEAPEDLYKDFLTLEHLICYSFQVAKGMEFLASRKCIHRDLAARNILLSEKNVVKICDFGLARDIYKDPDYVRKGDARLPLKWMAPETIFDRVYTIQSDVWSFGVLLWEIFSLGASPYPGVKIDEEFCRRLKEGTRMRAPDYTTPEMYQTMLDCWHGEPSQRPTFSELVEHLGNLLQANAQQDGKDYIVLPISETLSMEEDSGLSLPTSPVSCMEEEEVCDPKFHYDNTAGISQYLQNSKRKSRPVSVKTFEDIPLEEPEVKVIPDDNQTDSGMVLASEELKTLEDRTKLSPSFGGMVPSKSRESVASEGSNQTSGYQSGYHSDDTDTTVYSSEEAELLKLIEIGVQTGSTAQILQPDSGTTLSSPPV

Row | Compound | IC50 [nM]
1 | O=C(Nc1ccc(Oc2ccnc3cc(C4=CCN(CCCN5CCOCC5)CC4)sc23)c(F)c1)NC1CC1 [Compound 276, 1-cyclopropyl-3-(3-fluoro-4-(2-(1-(3-morpholinopropyl)-1,2,3,6-tetrahydropyridin-4-yl)thieno[3,2-b]pyridin-7-yloxy)phenyl)urea] | 50 to 100
2 | COCCOCCOCC(=O)N1CCN(Cc2ccc(-c3cc4nccc(Oc5ccc(NC(=O)NC6CC6)cc5F)c4s3)nc2)CC1 [Compound 588, 1-Cyclopropyl-3-(3-fluoro-4-(2-(5-((4-(2-(2-(2-methoxyethoxy)ethoxy)acetyl)piperazin-1-yl)methyl)pyridin-2-yl)thieno[3,2-b]pyridin-7-yloxy)phenyl)urea] | < 50
3 | O=C(Nc1ccc(Oc2ccnc3cc(-c4ccc(CN5CCNC5=O)cn4)sc23)c(F)c1)NC1CC1 [Compound 143, 1-cyclopropyl-3-(3-fluoro-4-(2-(5-((2-oxoimidazolidin-1-yl)methyl)pyridin-2-yl)thieno[3,2-b]pyridin-7-yloxy)phenyl)urea] | < 50
4 | COCCN(CCc1ccc(-c2cc3nccc(Oc4ccc(NC(=O)NC5CC5)cc4F)c3s2)nc1)C(=O)CO [Compound 46, N-(2-(6-(7-(4-(3-cyclopropylureido)-2-fluorophenoxy)thieno[3,2-b]pyridin-2-yl)pyridin-3-yl)ethyl)-2-hydroxy-N-(2-methoxyethyl)-acetamide] | < 50
5 | O=C(Nc1ccc(Oc2ccnc3cc(-c4ccc(C(=O)N5CCCC5)cc4)sc23)c(F)c1)NC1CC1 [Compound 129, 1-cyclopropyl-3-(3-fluoro-4-(2-(4-(pyrrolidine-1-carbonyl)phenyl)thieno[3,2-b]pyridin-7-yloxy)phenyl)urea] | < 50
6 | COCCOCCOCCOCCN(C)C1CCN(Cc2ccc(-c3cc4nccc(Oc5ccc(NC(=O)NC6CC6)cc5F)c4s3)nc2)CC1 [Compound 418] | < 50
7 | CC(=O)O[C@H]1CCN(C(=O)c2cc3nccc(Oc4ccc(NC(=O)NC5CC5)cc4F)c3s2)C1 [Compound 468, (S)-1-(7-(4-(3-cyclopropylureido)-2-fluorophenoxy)thieno[3,2-b]pyridine-2-carbonyl)pyrrolidin-3-yl acetate] | < 50
8 | CN(C)C(=O)c1cc2nccc(Oc3ccc(NC(=O)NC4CC4)cc3F)c2s1 [Compound 442] | < 50
9 | CCOC(=O)CN1CCN(Cc2ccc(-c3cc4nccc(Oc5ccc(NC(=O)NC6CC6)cc5F)c4s3)nc2)CC1 [Compound 60, ethyl 2-(4-((6-(7-(4-(3-cyclopropylureido)-2-fluorophenoxy)-thieno[3,2-b]pyridin-2-yl)pyridin-3-yl)methyl)piperazin-1-yl)acetate] | < 50
10 | CN(C)CCn1cc(-c2cc3nccc(Oc4ccc(NC(=O)NC5CC5)cc4F)c3s2)nn1 [Compound 367] | 50 to 100
11 | COCCN(CCn1cc(-c2cc3nccc(Oc4ccc(NC(=O)NC5CC5)cc4F)c3s2)cn1)C(C)=O [Compound 254, N-(2-(4-(7-(4-(3-cyclopropylureido)-2-fluorophenoxy)thieno[3,2-b]pyridine-2-yl)-1H-pyrazol-1-yl)ethyl)-N-(2-methoxyethyl)acetamide] | < 50
12 | CCOC(=O)NC1CCN(Cc2ccc(-c3cc4nccc(Oc5ccc(NC(=O)NC6CC6)cc5F)c4s3)nc2)CC1 [Compound 351] | < 50
13 | O=C(Nc1ccc(Oc2ccnc3cc(-c4cn(CCC(=O)N5CCOCC5)nn4)sc23)c(F)c1)NC1CC1 [Compound 377] | < 50
14 | COC(=O)C1CCN(Cc2ccc(-c3cc4nccc(Oc5ccc(NC(=O)NC6CC6)cc5F)c4s3)nc2)C1 (centres unmarked) [Compound 478, methyl 1-((6-(7-(4-(3-cyclopropylureido)-2-fluorophenoxy)thieno[3,2-b]pyridin-2-yl)pyridin-3-yl)methyl)pyrrolidine-3-carboxylate] | < 50
15 | CN(C)CCNC(=O)C1CCN(C(=O)c2cc3nccc(Oc4ccc(NC(=O)NC5CC5)cc4F)c3s2)CC1 [Compound 471, 1-(7-(4-(3-cyclopropylureido)-2-fluorophenoxy)thieno[3,2-b]pyridine-2-carbonyl)-N-(2-(dimethylamino)ethyl)piperidine-4-carboxamide] | 50 to 100
16 | O=C(O)CN1CCN(Cc2ccc(-c3cc4nccc(Oc5ccc(NC(=O)NC6CC6)cc5F)c4s3)nc2)CC1 [Compound 61, 2-(4-((6-(7-(4-(3-cyclopropylureido)-2-fluorophenoxy)thieno[3,2-b]pyridin-2-yl)pyridin-3-yl)methyl)piperazin-1-yl)acetic acid] | < 50
17 | C[C@H]1CN(Cc2ccc(-c3cc4nccc(Oc5ccc(NC(=O)NC6CC6)cc5F)c4s3)nc2)CCN1CCO [Compound 582, (S)-1-cyclopropyl-3-(3-fluoro-4-(2-(5-((4-(2-hydroxyethyl)-3-methylpiperazin-1-yl)methyl)pyridin-2-yl)thieno[3,2-b]pyridin-7-yloxy)phenyl)urea] | < 50
18 | CCNC(=O)N(CCOC)CCn1cc(-c2cc3nccc(Oc4ccc(NC(=O)NC5CC5)cc4F)c3s2)cn1 [Compound 255, N-(2-(4-(7-(4-(3-cyclopropylureido)-2-fluorophenoxy)thieno[3,2-b]-pyridine-2-yl)-1H-pyrazol-1-yl)ethyl)-N-(1-ethyl)-N-[3-(2-methoxyethyl)]urea] | 50 to 100
19 | O=C(Nc1ccc(Oc2ccnc3cc(C(=O)N4CC[C@H](O)C4)sc23)c(F)c1)NC1CC1 [Compound 461, (S)-1-cyclopropyl-3-(3-fluoro-4-(2-(3-hydroxypyrrolidine-1-carbonyl)thieno[3,2-b]pyridin-7-yloxy)phenyl)urea] | < 50
20 | COCCN(Cc1ccc(-c2cc3nccc(Oc4ccc(NC(=O)NC5CC5)cc4F)c3s2)nc1)C(=O)COP(=O)(O)O [Compound 34, 2-(((6-(7-(4-(3-cyclopropylureido)-2-fluorophenoxy)thieno[3,2-b]pyridin-2-yl)pyridin-3-yl)methyl)(2-methoxyethyl)amino)-2-oxoethyl dihydrogen phosphate] | < 50
21 | CC(C)(C)C(=O)OC1CN(C(=O)c2cc3nccc(Oc4ccc(NC(=O)NC5CC5)cc4F)c3s2)C1 [Compound 454] | < 50
22 | COCCN(Cc1ccc(-c2cc3nccc(Oc4ccc(NC(=O)NC5CC5)cc4F)c3s2)cc1)C(C)=O [Compound 114, N-(4-(7-(4-(3-cyclopropylureido)-2-fluorophenoxy)thieno[3,2-b]pyridin-2-yl)benzyl)-N-(2-methoxyethyl)acetamide] | < 50
23 | CCOC(=O)C1CCCN(C(=O)c2cc3nccc(Oc4ccc(NC(=O)NC5CC5)cc4F)c3s2)C1 (centres unmarked) [Compound 458] | 50 to 100

Continued, values first:

Row | IC50 [nM] | Compound
24 | < 50 | CN(C)[C@H]1CCN(C(=O)c2cc3nccc(Oc4ccc(NC(=O)NC5CC5)cc4F)c3s2)C1 [Compound 441]
25 | < 50 | CC(=O)N(CCO)Cc1ccc(-c2cc3nccc(Oc4ccc(NC(=O)NC5CC5)cc4F)c3s2)nc1 [Compound 10, N-((6-(7-(4-(3-cyclopropylureido)-2-fluorophenoxy)thieno[3,2-b]pyridin-2-yl)pyridin-3-yl)methyl)-N-(2-hydroxyethyl)acetamide]
26 | < 50 | O=C(Cn1cc(-c2cc3nccc(Oc4ccc(NC(=O)NC5CC5)cc4F)c3s2)nn1)NCc1ccccn1 [Compound 383]
27 | < 50 | COC(=O)CCn1cc(-c2cc3nccc(Oc4ccc(NC(=O)NC5CC5)cc4F)c3s2)nn1 [Compound 369]
28 | < 50 | CC(=O)N[C@H]1CCN(C(=O)c2cc3nccc(Oc4ccc(NC(=O)NC5CC5)cc4F)c3s2)C1 [Compound 452]
29 | < 50 | O=C(Nc1ccc(Oc2ccnc3cc(-c4ccc(CN5CCN(C(=O)CCCC[C@H]6SC[C@H]7NC(=O)N[C@H]76)CC5)cn4)sc23)c(F)c1)NC1CC1 [Compound 535]
30 | < 50 | COCCN(Cc1cnc(-c2cc3nccc(Oc4ccc(NC(=O)NC5CC5)cc4F)c3s2)n1C)C(=O)NC1CC1 [Compound 161, 1-((2-(7-(2-fluoro-4-cyclopropylaminocarbonylaminophenoxy)thieno[3,2-b]pyridin-2-yl)-1-methyl-1H-imidazol-5-yl)methyl)-3-cyclopropyl-1-(2-methoxyethyl)urea]
31 | < 50 | CC(C)[C@H](N)C(=O)N1CCN(Cc2ccc(-c3cc4nccc(Oc5ccc(NC(=O)NC6CC6)cc5F)c4s3)nc2)CC1 [Compound 76, (S)-1-(4-(2-(5-((4-(2-amino-3-methylbutanoyl)piperazin-1-yl)methyl)pyridin-2-yl)thieno[3,2-b]pyridin-7-yloxy)-3-fluorophenyl)-3-cyclopropylurea]
32 | < 50 | COCCNCc1ccc(-c2cc3nccc(Oc4ccc(NC(=S)NC5CC5)cc4F)c3s2)nc1 [Compound 502, 1-Cyclopropyl-3-(3-fluoro-4-(2-(5-((2-methoxyethylamino)methyl)pyridin-2-yl)thieno[3,2-b]pyridin-7-yloxy)phenyl)thiourea]
33 | < 50 | CS(=O)(=O)c1cccc(NC(=O)Nc2ccc(Oc3ccnc4cc(-c5ccc(C(=O)N6CCCC6)cc5)sc34)c(F)c2)c1 [Compound 130, 1-(3-fluoro-4-(2-(4-(pyrrolidine-1-carbonyl)phenyl)thieno[3,2-b]pyridin-7-yloxy)phenyl)-3-(3-(methylsulfonyl)phenyl)urea]
34 | < 50 | COCCOCCOCCOCCN(Cc1ccc(-c2cc3nccc(Oc4ccc(NC(=O)NC5CC5)c(F)c4F)c3s2)nc1)C(=O)CO [Compound 259, N-((6-(7-(4-(3-cyclopropylureido)-2,3-difluorophenoxy)thieno-[3,2-b]pyridin-2-yl)pyridin-3-yl)methyl)-2-hydroxy-N-(2,5,8,11-tetraoxatridecan-13-yl)acetamide]
35 | < 50 | CC(C)(C)OC(=O)N[C@@H]1CCN(Cc2ccc(-c3cc4nccc(Oc5ccc(NC(=O)NC6CC6)cc5F)c4s3)nc2)C1 [Compound 481, (R)-tert-butyl 1-((6-(7-(4-(3-cyclopropylureido)-2-fluorophenoxy)thieno[3,2-b]pyridin-2-yl)pyridin-3-yl)methyl)pyrrolidin-3-ylcarbamate]
